From PubChem BioAssay AID1897 (NMMLSC, 2009)
The source made the active and inactive calls. No rule for the calls is given here.

Biological target: Mitogen-activated protein kinase kinase kinase 2 (Homo sapiens) + Dual specificity mitogen-activated protein kinase kinase 5 (Homo sapiens) (UniProt Q9Y2U5+Q13163)
Assay: inhibitors of MEK5 binding to MEKK2, dose response, biochemical, bead multiplex flow cytometry, wildtype (AID 1897)
Details: MEK5-MEKK2 PB1 binding; for Ki: measured here: Ki from binding competition

Mitogen-activated protein kinase kinase kinase 2 (Homo sapiens) + Dual specificity mitogen-activated protein kinase kinase 5 (Homo sapiens), sequence (Q13163 whole entry, looked up): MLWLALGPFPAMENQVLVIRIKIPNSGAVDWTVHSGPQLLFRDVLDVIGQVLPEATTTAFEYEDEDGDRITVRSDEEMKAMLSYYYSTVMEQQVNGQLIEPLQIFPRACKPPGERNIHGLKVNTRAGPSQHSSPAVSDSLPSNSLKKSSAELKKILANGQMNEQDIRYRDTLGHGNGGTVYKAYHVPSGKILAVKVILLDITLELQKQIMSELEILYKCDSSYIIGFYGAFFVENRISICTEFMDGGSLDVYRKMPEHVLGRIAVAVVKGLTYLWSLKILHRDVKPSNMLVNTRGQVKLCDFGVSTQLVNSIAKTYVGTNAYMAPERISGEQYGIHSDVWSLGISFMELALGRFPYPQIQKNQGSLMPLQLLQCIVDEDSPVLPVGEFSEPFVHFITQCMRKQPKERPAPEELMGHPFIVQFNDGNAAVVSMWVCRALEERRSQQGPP
Mitogen-activated protein kinase kinase kinase 2 (Homo sapiens) + Dual specificity mitogen-activated protein kinase kinase 5 (Homo sapiens), sequence (Q9Y2U5 whole entry, looked up): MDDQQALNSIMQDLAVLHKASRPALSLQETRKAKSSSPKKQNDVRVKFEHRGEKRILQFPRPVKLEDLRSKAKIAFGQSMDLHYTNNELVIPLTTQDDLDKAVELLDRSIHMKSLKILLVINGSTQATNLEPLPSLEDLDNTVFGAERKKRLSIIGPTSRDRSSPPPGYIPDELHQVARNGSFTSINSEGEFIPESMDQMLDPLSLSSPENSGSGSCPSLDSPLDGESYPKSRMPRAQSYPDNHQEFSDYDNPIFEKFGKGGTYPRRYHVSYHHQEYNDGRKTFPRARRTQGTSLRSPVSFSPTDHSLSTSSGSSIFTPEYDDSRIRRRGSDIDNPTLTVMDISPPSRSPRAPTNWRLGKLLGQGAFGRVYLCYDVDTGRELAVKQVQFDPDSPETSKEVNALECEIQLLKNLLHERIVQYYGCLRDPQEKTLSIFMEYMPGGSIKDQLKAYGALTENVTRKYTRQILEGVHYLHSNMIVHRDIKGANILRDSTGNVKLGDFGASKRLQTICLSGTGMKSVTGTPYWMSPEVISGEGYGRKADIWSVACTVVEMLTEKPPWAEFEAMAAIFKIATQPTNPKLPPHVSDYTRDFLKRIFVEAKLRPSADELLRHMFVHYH

Structure (SMILES)	EC50	Ki [µM]
Cc1ccc(CN2CCSc3ccc(C(=O)NC4CCN(Cc5ccccc5)CC4)cc32)cc1	5.13 µM	
CCN1CCN(Cc2ccc(NC(=O)c3cc(NC(=O)c4cncc(-c5cccs5)c4)cc(OC)c3)cc2C(F)(F)F)CC1	> 30 µM (inactive)	
CCN1/C(=C/c2ccc3cc(C)ccc3[n+]2CC)Sc2cc(C)c(C)cc21	2.63 µM	2.35
CCOC(=O)c1c(-c2ccc(-c3ccccc3)cc2)csc1NC(=O)CNCCN(C)C	1.55 µM	
CNC[C@H](CC1CCCCC1)NC[C@H](Cc1ccccc1)NCCC12CC3CC(CC(C3)C1)C2	4.93 µM	
C#CCOCCOCCOCCNc1nc(N2CCN(C(=O)[C@H](Cc3cc4ccccc4[nH]3)n3cc([C@@H](N)C(C)CC)nn3)CC2)nc(N2CCN(C(=O)[C@H](Cc3cc4ccccc4[nH]3)n3cc([C@@H](N)Cc4ccc(O)cc4)nn3)CC2)n1 (stereo not given in full)	1.01 µM	
COc1ccc(CSc2n[nH]c(C)n2)cc1[N+](=O)[O-]	> 30 µM (inactive)	
Cc1nc(N)sc1-c1csc(Nc2ncccn2)n1	> 30 µM (inactive)	
COc1ccc(N2CC(C(=O)Nc3nnc(SCc4ccccn4)s3)CC2=O)cc1 (stereo not given)	> 30 µM (inactive)	
CCN1/C(=C/C(C)=C/c2sc3ccccc3[n+]2CC)Sc2ccccc21	0.53 µM	0.47
CCN1CCN(Cc2ccc(NC(=O)c3cc(NC(=O)c4cnn(-c5ccccc5)c4N)cc(OC)c3)cc2C(F)(F)F)CC1	> 30 µM (inactive)	
C#CCOCCOCCOCCNc1nc(N2CCN(C(=O)[C@H](CCCCN)n3cc([C@@H](N)CC(C)C)nn3)CC2)nc(N2CCN(C(=O)[C@H](Cc3cc4ccccc4[nH]3)n3cc([C@@H](N)Cc4ccc(O)cc4)nn3)CC2)n1	> 30 µM (inactive)	
C#CCOCCOCCOCCNc1nc(N2CCN(C(=O)[C@H](Cc3ccc(O)cc3)n3cc([C@@H](N)CC(C)C)nn3)CC2)nc(N2CCN(C(=O)[C@H](Cc3cc4ccccc4[nH]3)n3cc([C@@H](N)CC(C)C)nn3)CC2)n1	5.14 µM	
C#CCOCCOCCOCCNc1nc(N2CCN(C(=O)[C@H](Cc3cc4ccccc4[nH]3)n3cc([C@@H](N)CC(C)C)nn3)CC2)nc(N2CCN(C(=O)[C@H](Cc3cc4ccccc4[nH]3)n3cc([C@@H](N)CC(C)C)nn3)CC2)n1	> 30 µM (inactive)	
CN1CCN(c2ccc(NC(=O)c3ccc(-c4ccc(Cl)cc4)o3)cc2)CC1	2.26 µM	2.02
COc1ccc(/C=N/Nc2cc(C)nc3ccc(Br)cc23)cc1	1.94 µM	
Cc1cc2ccccc2n1CCNC(=O)c1cccs1	14.6 µM	13.1
CCN1C(c2ccccc2)=C(c2ccccc2)S/C1=C/C=C1\SC(=S)N(C)C1=O	2.73 µM	2.44
Cc1ccccc1OCC(O)CNC1CCC(NCC(O)COc2ccccc2C)CC1 (stereo not given)	> 30 µM (inactive)	
OCCCCNCc1ccc(OCc2ccc(Cl)cc2Cl)cc1	> 30 µM (inactive)	
COc1ccc(C2NCCc3c2[nH]c2ccccc32)cc1CN1CCc2cc(OC)c(OC)cc2C1C (stereo not given)	10.5 µM	

Structure (SMILES)	EC50	Ki [µM]
CCCCCCCCCC[N+](C)(C)CC/C=C1/c2ccccc2Sc2ccc(Cl)cc21	2.24 µM	
CCCCCCCCCCCCCCCC[n+]1ccc(/C=N/O)cc1	2.94 µM	
O=C1Nc2ccc(Br)cc2/C1=N/N=C/C1=C(N2CCOCC2)C(=C\c2ccccc2)/CC1	1.87 µM	1.68
CN(C)CCCN(C(=O)c1ccc2c(c1)CCCC2)c1nc2ccc(Cl)cc2s1	> 30 µM (inactive)	
CCN(CC)CCOc1ccc2c(c1)C(=NNC(=O)c1ccccn1)c1cc(OCCN(CC)CC)ccc1-2	5.71 µM	
CCN1C(c2ccccc2)=C(c2ccccc2)S/C1=C\C=C1/SC(=S)N(C)C1=O	3.38 µM	3.02
COC(=O)C1=C(C)N(Cc2ccccc2)C(=NCc2cccc(C(F)(F)F)c2)N[C@H]1c1cccc(F)c1	7.03 µM	
Nc1ccc(N)c(C(=O)O)c1	3.78 µM	3.39
Cc1ccc(-n2cc(CNCCCn3ccnc3C)c(-c3ccc(F)cc3)n2)cc1	> 30 µM (inactive)	
CCC(/C=C1\Sc2ccc(OC)cc2N1CC)=C\c1sc2ccc(OC)cc2[n+]1CCCS(=O)(=O)[O-]	4.49 µM	4.01
COc1ccc2nc(C)cc(N/N=C/c3ccc(F)cc3)c2c1	> 30 µM (inactive)	
CN(c1ccccc1)c1ccc(/C=c2\s/c(=C(/C#N)C(=O)C(C)(C)C)n(Cc3ccco3)c2=O)cc1	0.67 µM	0.6
CCCCn1c(O)c(/C=C/C=C/C=Nc2ccccc2)sc1=S	1.12 µM	1
CCN(CC)CCOC(=O)c1ccc(N/C=C(/C#N)c2nc(-c3ccc4c(c3)OCO4)cs2)cc1	> 30 µM (inactive)	
CCOC(=O)C1=C(c2ccccc2)NC(N)=NC1c1ccc(OCc2ccc(C(=O)OC)cc2)cc1 (stereo not given)	> 30 µM (inactive)	
CCCCCCCCCCCCCCCC[n+]1cccc2ccccc21	> 30 µM (inactive)	
CCCCCc1cc(=O)oc2c(C(CCN3CCCC3)c3ccc(N(C)C)cc3)c(OC)cc(OC)c12 (stereo not given)	20.9 µM	
COc1ccc(-c2csc(N(CCCN(C)C)C(=O)c3ccccc3Cl)n2)cc1	> 30 µM (inactive)	
Cc1cc2ccccc2n1CCNC(=O)c1ccccc1	3.02 µM	2.7
CCn1cc(C(=O)O)c(=O)c2cc(F)c(N3CCN(C(=S)NC(=O)c4ccc(Br)cc4)CC3)cc21	> 30 µM (inactive)	
CCN1/C(=C\c2ccc3cc(C)ccc3[n+]2CC)Sc2cc(C)c(C)cc21	> 30 µM (inactive)	

Structure (SMILES)	EC50	Ki [µM]
CN(C)CCCn1c(SCC(=O)Nc2nc(-c3cccc(Br)c3)cs2)nc2ccccc2c1=O	> 30 µM (inactive)	
CCOC(=O)C(C(=O)OCC)c1cc(Br)c2noc3c2c1C(=O)c1ccccc1-3	2.82 µM	2.53
CCN1/C(=C/c2ccc3cc(C)cc(C)c3[n+]2CC)Sc2cc(C)ccc21	1.88 µM	1.68
Nc1ccc2nc(-c3ccc(-c4nc5ccc(N)cc5[nH]4)cc3)[nH]c2c1	> 30 µM (inactive)	
CCN1CCN(CCNC(=O)c2ccc(/C=C3/Sc4ccccc4N(Cc4cccc(Cl)c4)C3=O)cc2)CC1	3.78 µM	
COc1ccccc1N(CN1C(=O)c2ccccc2C1=O)C(=O)c1cccc(C)c1	> 30 µM (inactive)	
COc1cc(CNCCc2c[nH]c3ccccc23)ccc1OCc1ccccc1F	> 30 µM (inactive)	
COc1ccc(C(CCNCc2ccc(OC(C)C)cc2)c2ccccc2OC)cc1 (stereo not given)	> 30 µM (inactive)	
COCc1c(C#N)c(NCCc2ccccc2)nc(C)c1[N+](=O)[O-]	> 30 µM (inactive)	
CCN(CC)CCOC(=O)c1ccc(N/C=C(/C#N)c2nc(-c3ccc(OC)c(OC)c3)cs2)cc1	> 30 µM (inactive)	
Brc1ccc(N=C/C=C/C=C/Nc2ccc(Br)cc2)cc1	> 30 µM (inactive)	
Cc1ccnc(NC(=O)C2(c3cccs3)CCOCC2)c1	> 30 µM (inactive)	
Cc1c2cc(O)c(=O)cc-2oc2cc(O)c(O)cc12		3.59
N#CC(C#N)=c1ccc2c(c1)N1C(c3ccccc3)=CC(c3ccccc3)C3CCCCC31N=2 (stereo not given)	1.95 µM	1.75
CNC(=O)C(=O)Nc1c(C)cc(C)cc1C	> 30 µM (inactive)	
CCCOc1ccc2c(c1)C(=NN=C(N)N)c1cc(OCCC)ccc1-2	4.59 µM	
C#CCOCCOCCOCCNc1nc(N2CCN(C(=O)[C@H](Cc3cc4ccccc4[nH]3)n3cc([C@@H](N)C(C)CC)nn3)CC2)nc(N2CCN(C(=O)[C@H](CCCCN)n3cc([C@@H](N)CC(C)C)nn3)CC2)n1 (stereo not given in full)	6.9 µM	
O=C(Nc1ccc(Cl)cn1)c1ccc2c(Cl)c3c(nc2c1)CCC3	> 30 µM (inactive)	
CSc1cccc(NC(=S)N(CCCN2CCCC2)Cc2cccn2Cc2ccc(Cl)cc2)c1	5.82 µM	
CCC(=C/c1sc2ccc3ccccc3c2[n+]1C)/C=C1\Sc2ccc3ccccc3c2N1C	0.14 µM	0.12
CCc1ccc(Nc2n[n+](-c3ccccc3)c(-c3ccc(OC)c(Br)c3)s2)cc1	2.85 µM	

Structure (SMILES)	EC50	Ki [µM]
CCCCCc1cc(=O)oc2c(C(CCN3CCCCC3)c3ccc(OC)cc3)c(OC)cc(OC)c12 (stereo not given)	> 30 µM (inactive)	
C#CCOCCOCCOCCNc1nc(N2CCN(C(=O)[C@H]([C@@H](C)CC)n3cc([C@@H](N)Cc4ccc(O)cc4)nn3)CC2)nc(N2CCN(C(=O)[C@H](CCCCN)n3cc([C@@H](N)CC(C)C)nn3)CC2)n1	10.1 µM	
Cc1cc(N=Nc2ccc(C)c(N=Nc3cc(C)c(N)cc3N)c2)c(N)cc1N	> 30 µM (inactive)	
CCCCCCCCCCOC(=O)Cn1c(COc2ccc(OC)cc2)[n+](C)c2ccccc21	> 30 µM (inactive)	
CCCCCCCCCCOC(=O)Cn1c(COc2cccc(C)c2)[n+](C)c2ccccc21	> 30 µM (inactive)	
O=C(Nc1ccc(C2=NCCN2)cc1)c1ccc(C(=O)Nc2ccc(C3=NCCN3)cc2)c([N+](=O)[O-])c1	> 30 µM (inactive)	
CC(=O)Nc1ccc(OCC(O)Cn2c3ccccc3c3ccccc32)cc1 (stereo not given)	> 30 µM (inactive)	
CN1CCN(CC(=O)N2CCn3c4c(c5cc(C6CCCCC6)ccc53)CCCC42)CC1 (stereo not given)	> 30 µM (inactive)	
COc1cc2nc(N3CCN(c4cc(C)ccc4C)CC3)nc(N)c2cc1OC	3.89 µM	
CN1C(=O)/C(=C\c2ccc(-c3ccccc3)o2)SC1=S	3.51 µM	3.14
CCCCCc1cc(=O)oc2c(C(CCN3CCCC(C)C3)c3ccc4c(c3)OCO4)c(OC)cc(OC)c12 (stereo not given)	> 30 µM (inactive)	
CC[n+]1c(/C=C/C=C/N(C(C)=O)c2ccccc2)sc2ccccc21	> 30 µM (inactive)	
CCCCCCCCCCOC(=O)Cn1c(COc2ccccc2OC)[n+](C)c2ccccc21	3.05 µM	
C#CCOCCOCCOCCNc1nc(N2CCN(C(=O)C(Cc3ccc(O)cc3)n3cc(C(N)CC(C)C)nn3)CC2)nc(N2CCN(C(=O)C(Cc3cc4ccccc4[nH]3)n3cc(C(N)C(C)CC)nn3)CC2)n1 (stereo not given)	> 30 µM (inactive)	
Cc1ccc(-c2csc(NC(=O)C[n+]3cc(-c4ccc(C)cc4)n4c3CCC4)n2)cc1	> 30 µM (inactive)	
Cc1nc(Nc2cnc(/C=C/c3cc(C(=O)Nc4cccc(C(F)(F)F)c4)ccc3C)cn2)cc(N2CCNCC2)n1	> 30 µM (inactive)	
CCCCCCCCCCOC(=O)Cn1c(COc2ccccc2)[n+](C)c2ccccc21	2.6 µM	
C=CCN1C(=O)/C(=C/c2ccc(-c3ccc(F)cc3)o2)SC1=S	2.06 µM	1.84
COc1ccc2nc3cc(Cl)ccc3c(Nc3cc(C(C)C)c(O)cc3C)c2c1	1.94 µM	
